Results taken from patent US20240368174A1, “Antiviral Heterocyclic Compounds” (Enanta Pharmaceuticals, Inc., priority 2023, published 2024).

Tested on: HMPV clinical isolate A2 strain TN 94-49
Test: HMPV antiviral assay, Method 2 (LLC-MK2 cells with CP-100-356, ATP-Lite)
Format: cell-based
Settings: human metapneumovirus; hMPV A2 TN/94-49, LLC-MK2 cells with CP-100-356, Method 2
Method: In vitro HMPV antiviral activity was evaluated using the clinical isolate A2 strain TN 94-49 (obtained from Dr. John Williams, Vanderbilt University, Tennessee) and LLC-MK2 cells (Millipore Sigma CB_85062804), an immortalized kidney epithelial cell line from Macaca mulatta. Compounds were resuspended in dimethyl sulfoxide (DMSO) at 10 mM, serially diluted and added to a 384-well source plate. Subsequently, the compounds were diluted and transferred onto 384-well assay plates using the Echo-650 automated liquid handling system (Beckman Coulter, Indiana). The test compounds were assessed in duplicate at a top concentration of 200 nM followed by 2.5-fold serial dilutions to give a total of 10 concentration points. DMSO control wells were also included on the assay plates and were either infected or not, acting as positive and negative controls. A2 TN 94-49 virus infections were performed in-suspension with LLC-MK2 cells. The cells were washed twice with PBS and removed from the cell-culture flask with 0.25% trypsin-EDTA (Thermo Fisher Scientific, MA). The trypsin-EDTA was inactivated by resuspending in 2% fetal bovine serum (FBS) and OptiMEM (ThermoFisher Scientific, MA) containing 1% antibiotic-antimycotic. Cells were pelleted by centrifuging for 5 minutes at 800 rpm, the supernatant was removed, and cells were re-suspended and washed in PBS plus 100 μg/mL CaCl2). This step was performed twice. Cells were then re-suspended in serum-free (SF)-OptiMEM containing 4 μg/mL TPCK-Trypsin (Sigma Aldrich, MO), 1% antibiotic-antimycotic (ThermoFisher Scientific, MA), 100 μg/mL CaCl2), and 4 μM of CP-100-356, a P-glycoprotein inhibitor. Cells were counted and seeded at a density of 5,000 cells/well, 12.5 μL/well. Virus infections were done at a multiplicity of infection (MOI) of 0.16 with 12.5 μL added per well. Virus infections were performed in infection media which contained SF-OptiMEM, 100 μg/mL CaCl2) and 1% antibiotic-antimycotic. HMPV viral stocks are suspended in infection media+5% glycerol, thus an equal volume of infection media+5% glycerol was added to uninfected wells to equalize the final % glycerol across all wells of the assay plate. The final concentration of TPCK-trypsin was 2 μg/mL. The final concentration of CP-100-356 was 2 μM. The assay plates were incubated at 37° C., 5% CO2 for 7 days. After 7 days incubation, 12.5 μL of ATP-Lite (PerkinElmer, MA) was added to each well and the raw luminescence values were determined using the Envision 2104 (Perkin Elmer, MA). The average of the raw luminescence values for the cells and virus only positive control wells was subtracted from all conditions tested and the percent cell health was determined by dividing these values by the average of the cells only negative control wells. EC50 values were then calculated by non-linear regression using a four-parameter curve logistic equation. The curve fit model employed was XLFit Dose Response One Site Model 200: y=(A+(B/(1+((x/C)^D)))), where A is the minimum y value, B is the maximum y value, C is the log EC50 value, and D is the slope factor.

COc1cc(C(=O)NC[C@](O)(c2cc3c(c(-c4cc(Cl)c(F)cc4F)n2)OC[C@]3(C)C(N)=O)C2CC2)cc(O)c1NC(=O)C1(F)CC1 [Example 236]
EC50: > 0.2 µM

COc1cc(C(=O)NC[C@@](O)(c2ccccc2)c2cc3c(c(-c4cc(Cl)c(F)cc4F)n2)OC[C@]3(C)C(N)=O)cc2oc(N)nc12 [Example 237]
EC50: < 0.2 µM

COc1cc(C(=O)NC[C@@](O)(c2ccccc2)c2cc3c(c(-c4cc(Cl)c(F)cc4F)n2)OC[C@]3(C)C(N)=O)cc2oc(C3(F)CC3)nc12 [Example 241]
EC50: < 0.2 µM

COc1cc(C(=O)NC[C@@](O)(c2ccccc2)c2cc3c(c(-c4cc(Cl)c(F)cc4F)n2)OC[C@]3(C)C(N)=O)cc(O)c1NC(=O)C1(F)CC1 [Example 242]
EC50: > 0.2 µM

COc1cc(C(=O)NC[C@](O)(c2cc3c(c(-c4cc(C(F)(F)F)ncc4F)n2)OC[C@]3(C)C(N)=O)C2CC2)cn2cc(C3CC3)nc12 [Example 246]
EC50: < 0.2 µM

COc1cc(C(=O)NC[C@@](O)(c2cccc(F)c2)c2cc3c(c(-c4ccc5c(c4Cl)OC(F)(F)O5)n2)OC[C@]3(C)C(N)=O)cc2oc(C)nc12 [Example 285]
EC50: < 0.2 µM

COc1cc(C(=O)NC[C@@](O)(c2cccc(F)c2)c2cc3c(c(-c4ccc5c(c4Cl)OC(F)(F)O5)n2)OC[C@]3(C)C(N)=O)cc2oc(C3CC3)nc12 [Example 286]
EC50: < 0.2 µM

COc1cc(C(=O)NC[C@@](O)(c2ccccc2)c2cc3c(c(-c4cc(C(F)F)c(F)cc4F)n2)OC[C@]3(C)C(N)=O)cc2cn(C(F)F)nc12 [Example 300]
EC50: < 0.2 µM

COc1cc(C(=O)NC[C@@](O)(c2cccc(F)c2)c2cc3c(c(-c4cc(C(F)(F)F)c(F)cc4F)n2)OC[C@]3(C)C(N)=O)cc2cn(C(F)F)nc12 [Example 301]
EC50: < 0.2 µM

COc1cc(C(=O)NC[C@@](O)(c2ccccc2)c2cc3c(c(-c4cc(C(F)(F)F)c(F)cc4F)n2)OC[C@]3(C)C(N)=O)cc2cn(C3CC3)nc12 [Example 302]
EC50: < 0.2 µM

COc1cc(C(=O)NC[C@@](O)(c2ccccc2)c2cc3c(c(-c4cc(C(F)(F)F)c(F)cc4F)n2)OC[C@]3(C)C(N)=O)cc2cn(C3(F)CC3)nc12 [Example 303]
EC50: < 0.2 µM

COc1cc(C(=O)NC[C@@](O)(c2ccccc2)c2cc3c(c(-c4cc(C(F)(F)F)c(F)cc4F)n2)OC[C@]3(C)C(N)=O)cc2cn(C(F)F)nc12 [Example 304]
EC50: < 0.2 µM

C[C@]1(C(N)=O)COc2c1cc([C@@](O)(CNC(=O)c1ccc3nc(C4CC4)oc3c1)c1ccccc1)nc2-c1cc(C(F)(F)F)c(F)cc1F [Example 307]
EC50: > 0.2 µM

C[C@]1(C(N)=O)COc2c1cc([C@@](O)(CNC(=O)c1ccc3nc(C4CC4)oc3c1)c1ccccc1)nc2-c1cc(C(F)F)c(F)cc1F [Example 311]
EC50: < 0.2 µM

C[C@]1(C(N)=O)COc2c1cc([C@@](O)(CNC(=O)c1ccc3nc(C4CC4)oc3c1)c1cccc(F)c1)nc2-c1ccc(F)c(Cl)c1Cl [Example 312]
EC50: < 0.2 µM

C[C@]1(C(N)=O)COc2c1cc([C@@](O)(CNC(=O)c1cc(OC3CC3)c3ncc(Cl)cc3c1)c1ccccc1)nc2-c1ccc(F)c(Cl)c1Cl [Example 313]
EC50: < 0.2 µM

C[C@]1(C(N)=O)COc2c1cc([C@@](O)(CNC(=O)c1cc(OC3CC3)c3ncc(Cl)cc3c1)c1ccccc1)nc2-c1cc(C(F)(F)F)c(F)cc1F [Example 315]
EC50: < 0.2 µM

COc1cc(C(=O)NC[C@](O)(c2cc3c(c(-c4cc(C(F)(F)F)c(F)cc4F)n2)OC[C@]3(C)C(N)=O)C2CC2)cc2cc(Cl)cnc12 [Example 316]
EC50: < 0.2 µM

C[C@]1(C(N)=O)COc2c1cc([C@@](O)(CNC(=O)c1cc(OC3CC3)c3ncc(Cl)cc3c1)C1CC1)nc2-c1cc(C(F)(F)F)c(F)cc1F [Example 317]
EC50: < 0.2 µM

C[C@]1(C(N)=O)COc2c1cc([C@@](O)(CNC(=O)c1cc(OC3CC3)n3nc(C4CC4)cc3c1)C1CC1)nc2-c1cc(C(F)(F)F)c(F)cc1F [Example 328]
EC50: < 0.2 µM

COc1cc(C(=O)NC[C@](O)(c2cc3c(c(-c4cc(C(F)(F)F)c(F)cc4F)n2)OC[C@]3(C)C(N)=O)C2CC2)cc2cc(C(F)(F)F)cnc12 [Example 329]
EC50: < 0.2 µM

COc1cc(C(=O)NC[C@](O)(c2cc3c(c(-c4ccc(F)c(C(F)(F)F)c4)n2)OC[C@]3(C)C(N)=O)C2CC2)cc2oc(C3CC3)nc12 [Example 330]
EC50: < 0.2 µM

COc1cc(C(=O)NC[C@@](O)(c2ccccc2)c2cc3c(c(-c4cc(Cl)ccc4F)n2)OC[C@]3(C)C(N)=O)cc2oc(C3CC3)nc12 [Example 331]
EC50: < 0.2 µM

COc1cc(C(=O)NC[C@@](O)(c2ccccc2)c2cc3c(c(-c4cc(C(F)(F)F)ccc4F)n2)OC[C@]3(C)C(N)=O)cc2oc(C3CC3)nc12 [Example 332]
EC50: < 0.2 µM

COc1cc(C(=O)NC[C@@](O)(c2cccc(F)c2)c2cc3c(c(-c4cccc(Cl)c4Cl)n2)OC[C@]3(C)C(N)=O)cc2cc(Cl)cnc12 [Example 333]
EC50: < 0.2 µM

C[C@]1(C(N)=O)COc2c1cc([C@@](O)(CNC(=O)c1cc(OC3CC3)c3ncc(Cl)cc3c1)c1cccc(F)c1)nc2-c1cccc(Cl)c1Cl [Example 334]
EC50: < 0.2 µM

C[C@]1(C(N)=O)COc2c1cc([C@@](O)(CNC(=O)c1cc(OC3CC3)n3nc(C4CC4)cc3c1)c1cccc(F)c1)nc2-c1cccc(Cl)c1Cl [Example 335]
EC50: < 0.2 µM

COc1cc(C(=O)NC[C@@](O)(c2cccc(F)c2)c2cc3c(c(-c4cccc(Cl)c4Cl)n2)OC[C@]3(C)C(N)=O)cc2cc(C3CC3)nn12 [Example 336]
EC50: < 0.2 µM

COc1cc(C(=O)NC[C@@](O)(c2cccc(F)c2)c2cc3c(c(-c4cccc(Cl)c4Cl)n2)OC[C@]3(C)C(N)=O)cn2cc(C3CC3)nc12 [Example 337]
EC50: < 0.2 µM

C[C@]1(C(N)=O)COc2c1cc([C@@](O)(CNC(=O)c1cc(OC3CC3)c3nn(C4(F)CC4)cc3c1)c1cccc(F)c1)nc2-c1cccc(Cl)c1Cl [Example 339]
EC50: < 0.2 µM

COc1cc(C(=O)NC[C@@](O)(c2cccc(F)n2)c2cc3c(c(-c4ccc(F)c(Cl)c4Cl)n2)OC[C@]3(C)C(N)=O)cc2cn(C3CC3)nc12 [Example 340]
EC50: < 0.2 µM

COc1cc(C(=O)NC[C@@](O)(c2ccccc2)c2cc3c(c(-c4cc(Cl)c(F)cc4F)n2)OC[C@]3(C)C(N)=O)cc2cc(Cl)c(F)nc12 [Example 342]
EC50: > 0.2 µM

C[C@]1(C(N)=O)COc2c1cc([C@@](O)(CNC(=O)c1cc(Cl)c3nn(C4CC4)cc3c1)C1CC1)nc2-c1cc(C(F)(F)F)ncc1F [Example 353]
EC50: < 0.2 µM

COc1cc(C(=O)NC[C@](O)(c2cc3c(c(-c4cc(C(F)(F)F)ncc4F)n2)OC[C@]3(C)C(N)=O)C2CC2)cc2cc(C3CC3)nn12 [Example 354]
EC50: < 0.2 µM

COc1cc(C(=O)NC[C@@](O)(c2ccccc2)c2cc3c(c(-c4ccnc(F)c4Cl)n2)OC[C@]3(C)C(N)=O)cc2cn(C(F)F)nc12 [Example 358]
EC50: < 0.2 µM

COc1cc(C(=O)NC[C@@](O)(c2ccccc2)c2cc3c(c(-c4ccnc(F)c4Cl)n2)OC[C@]3(C)C(N)=O)cn2cc(C3CC3)nc12 [Example 359]
EC50: < 0.2 µM

COc1cc(C(=O)NCC(O)(c2ccccc2)c2cc3c(c(-c4ccc(F)cc4)n2)OC[C@]3(C)C(N)=O)cc2cn(C3(F)CC3)nc12 (some centres unmarked) [Example 361]
EC50: > 0.2 µM

COc1cc(C(=O)NCC(O)(c2ccccc2)c2cc3c(c(-c4ccc(F)c(Cl)c4)n2)OC[C@]3(C)C(N)=O)cc2cn(C3(F)CC3)nc12 (some centres unmarked) [Example 362]
EC50: < 0.2 µM
